Legend:
Type in all cases: cell-based, human
PLR123 organoids [1] = assay: Regrowth of SN-38-treated PLR123 organoids on re-culture, CellTiter-Glo 3D Cell Viability Assay; details: BSO 200 μM and/or AUR 200 nM added upon re-culture of SN-38-treated organoids; n=4, FIG. 13
Experimental: Specifically, 7-ethyl-10-hydroxycamptothecin (SN-38, Cat #H0165, Merck) was added to the organoids (day 10) prepared in Example 1-1 at a concentration of 300 nM and culture was carried out for three days (SN-38 treatment). After culturing, organoids were recovered by decomposing Matrigel with Dispase I (Cat #386-02271, Fujifilm Wako Pure Chemical Corporation), washed with Cellotion (Cat #CB051, Nippon Zenyaku Kogyo Co., Ltd.), and the washed organoids were suspended in a new Matrigel and dispensed at 20 μL/well into a 96-well plate in which 20-30 μL/well of Matrigel was gelled beforehand. By centrifuging immediately after dispensing, the organoids were aligned on a single plane, making it easier to observe under a microscope. After gelling Matrigel at 37° C., 200 μL/well of an organoid culture medium (Example 1-1) was added and re-culture was carried out at 37° C. in a 5% CO2 environment.
In order to confirm the contribution of GPX1 and GPX2 towards the regrowth of organoids, the gamma-glutamylcysteine synthetase inhibitor L-buthionine-sulfoximine (BSO, Cat #B2515, Merck, 200 μM) and the thioredoxin reductase inhibitor auranofin (AUR, Cat #A6733, Merck, 200 nM) were added upon re-culture in the re-culture method of Example 2-1, and cell proliferation was measured by CellTiter-Glo 3D Cell Viability Assay (FIG. 12).

GPX1 [2] = assay: IHC protein expression analysis of organoids; details: immediately after 300 nM SN-38 treatment; expression continued on day 2 of regrowth; FIG. 11
Experimental: (§1) The protein expression of GPX1 (Uniprot ID: P07203, Refseq accession No. NP_000572) and GPX2 (Uniprot ID: P18283, Refseq accession No. NP_002074) was analyzed by IHC. Using an anti-GPX1 antibody (Cat #ab22604, Abcam, 0.5 ng/mL) and an anti-GPX2 antibody (Cat #ab137431, Abcam, 0.5 ng/mL) with the Envision system (Cat #K4003, Agilent) and peroxidase-diaminobenzidine reaction, the organoids of Example 1-1 (day 10), the SN-38-treated organoids of Example 2-1, and the regrowing organoids of Example 2-1 (day 2, day 6) were each stained. The results of IHC analysis confirmed that the expression of GPX1 and GPX2 increased immediately after the treatment with SN-38 and expression continued even on day 2 of regrowth (FIG. 11).

GPX2 [3] = assay: IHC protein expression analysis of organoids; details: immediately after 300 nM SN-38 treatment; expression continued on day 2 of regrowth; FIG. 11
Experimental: as §1

PLR123 organoids [4] = assay: Pathological (structural) analysis of organoids after SN-38 treatment; details: after 300 nM SN-38 for three days; new luminal structure formed from surviving cells during re-culture; FIG. 7
Experimental: In order to observe the structure of the organoids produced in Example 1-1 in detail, a pathological analysis was performed according to a previous report (J. Toxicol. Pathol. 31, 81-85 (2018)). Specifically, after removing the culture supernatant from each of the three-dimensional cultures (day 7, day 10, day 12, and day 13), 4% paraformaldehyde/phosphate buffer (Cat #09154-14, Nacalai Tesque) was added, and fixation was carried out at room temperature for 30 minutes. Matrigel was decomposed by pipetting, and organoids were collected in a centrifuge tube and washed. Subsequently, the organoids were suspended in a warmed 2% aqueous agarose solution (agarose, Type IX, Cat #A5030, Merck), centrifuged, and then cooled on ice to gel the agarose. This was treated by the AMeX method and embedded in paraffin. Paraffin blocks were sliced and stained with hematoxylin and eosin (HE) or Alcian blue-Periodic acid-Schiff (AB-PAS) by standard methods. Further, anti-LGR5 antibody (clone 2U2E-2 (Stem Cells, 30, 2631-2644 (2012))) and anti-Ki-67 antibody (clone MIB-1, Cat #M7240, Agilent) were used for immunofluorescent staining of the paraffin block sections. […]
The structure of the regrowing organoids was analyzed by pathological analysis in the same manner as in Example 1-3. […]

GPX1 [5] = assay: RNA-seq gene expression analysis of SN-38-treated organoids; details: organoids day 10 treated with 300 nM SN-38 for three days vs untreated organoids; n=3, FIG. 10
Experimental: (§2) The gene expression of the organoids prepared in Example 1-1 was analyzed by RNA-seq. First, total RNA was prepared from 2D-cultured cells and 3D-cultured organoids (day 10) cultured in Example 1-1 using TRIzol Reagent (Cat #15596018, Thermo Fisher Scientific). The quality of the purified total RNA was verified through RNA integrity number (RIN) measured using an Agilent 2100 Bioanalyzer (Agilent) to confirm that the RIN was greater than 9. Next, cDNAs were synthesized and amplified from 1 ng of total RNA using the SMART-Seq v4 Ultra Low Input RNA Kit for Sequencing (Takara Bio). Subsequently, a library was prepared using the Nextera XT DNA Library Prep kit (Illumina), and sequenced at 75 bp paired-end reads using the NextSeq500 system (Illumina). The obtained sequence information was mapped to NCBI RefSeq transcript sequence using RSEM software (v1.2.31), and the gene expression level was calculated by FPKM (Fragments Per Kilobase of exon model per Million mapped reads).
(§3) Gene expression analysis was performed on the organoids of Example 1-1 (day 10) and the SN-38-treated organoids of Example 2-1 using RNA-seq in the same manner as in Example 1-2 (n=3).

GPX2 [6] = assay: as above; details: organoids day 10 treated with 300 nM SN-38 for three days vs untreated organoids; n=3, FIG. 10
Experimental: as §2, §3

LGR5 = assay: FACS measurement of LGR5 expression in organoids; details: organoids immediately after SN-38 treatment; FIG. 8
Experimental: […] […] […] The resulting cells were reacted with 2 μg/mL anti-LGR5 antibody (clone 2L36 (Stem Cells, 30, 2631-2644 (2012))) or control mouse IgG2a antibody (clone MG2a-53, Cat #401502, BioLegend) at 4° C. for 1 hour, and then reacted with a PE-labeled secondary antibody (Cat #P-21139, Thermo Fisher Scientific) for 30 minutes at 4° C. Then dead cells were stained with 7-AAD Viability Dye (Cat #A07704, Beckman Coulter) and measured with a flow cytometer (BD FACSAria III, BD Biosciences). PBS containing 2% fetal bovine serum and 0.1% NaN3 was used as the buffer. Data were analyzed using BD FACSDiva (version 8.0.1, BD Biosciences) and FlowJo (version 7.6.5, BD Biosciences).

SMILES	organoid regrowth (cell proliferation) (PLR123 organoids [1])	protein expression of GPX1 (IHC) (GPX1 [2])	protein expression of GPX2 (IHC) (GPX2 [3])	organoid structure (PLR123 organoids [4])	expression of GPX1 (RNA-seq) (GPX1 [5])	expression of GPX2 (RNA-seq) (GPX2 [6])	LGR5 expression (FACS) (LGR5)
CC(=O)OC[C@H]1O[C@@H]([S-])[C@H](OC(C)=O)[C@@H](OC(C)=O)[C@@H]1OC(C)=O.CCP(CC)CC.[Au+] [AUR, auranofin]	suppressed only when both inhibitors were used in combination						
CCCCS(=N)(=O)CCC(N)C(=O)O [BSO, L-buthionine-sulfoximine]	suppressed only when both inhibitors were used in combination						
CCc1c2c(nc3ccc(O)cc13)-c1cc3c(c(=O)n1C2)COC(=O)[C@]3(O)CC [SN-38, 7-ethyl-10-hydroxycamptothecin]		increased	increased	once disrupted	increased by two-fold or more	increased by two-fold or more	almost no LGR5 expression was observed
